Results as given in patent publication US9962427B2, “Treatment of right ventricular dysfunction due to pressure overload” (OTTAWA HOSPITAL RESEARCH INSTITUTE, priority 2016, dated 2018).

Experiments:
[1] = test system: cardiomyocytes
Experimental: FIG. 7B Quantitation of cell viability analysis as shown in (A). FIG. 7C Quantification of PI cell viability FACS analysis following a 24 hrs treatment of cardiomyocytes with H2O2 in the presence or absence of hCT1. Pre-treatment with PI3K inhibitor (LY294002, 50 μM) before H2O2 was also tested.
Cardiomyocytes were treated with control serum-free media or with H2O2 (300 μM, 1 hr) to induce cell death in the presence or absence of hCT1 (0.5 nM). After 24 hrs, cells were incubated with the cell viability marker Propidium Iodide (PI) (1 μg/mL) and analyzed by FACS (Ex: 535 nm, Em: 617 nm) for viable cells; i.e. cells inside the gated region of the side scatter (SS) versus PI plot (FIG. 7A). […] The PI3K pathway is a critical feature of physiological cardiac adaptive compensation and is a key protective feature distinguishing it from pathological adaptive compensation. Therefore, cardiomyocytes were pre-treated with a PI3K inhibitor (LY294002, 50 μM) before CT-1/H2O2 treatment.

[2] = test system: rats; assay: M-mode ECHO after 2 weeks of osmotic minipump delivery in rats; type: in vivo, rat; details: ISO 1 mg/kg/day
Experimental: FIGS. 3A, 3B, and 3C. […] Arrows (in upper panels) point to myocardial wall (RVLW). Dotted lines (in lower panels) show inner ventricle chambers.
CT-1 was tested in vivo to determine whether its administration would induce a myocardial adaptive remodeling characteristic of physiologic compensation (FIGS. 3A, 3B, and 3C). Osmotic minipumps containing PBS control (Ctrl) or hCT1 (6 μg/kg/hr) or Isoproterenol (ISO, 1 mg/kg/day) were implanted subcutaneously in rats. ISO is a beta-adrenergic receptor agonist and continuous infusion with ISO in rats is known to induce pathological cardiac hypertrophy and cardiomyocyte damage (in both the right and left ventricles) which progresses to heart failure (Morisco et al (2001) J Mol Cell Cardiol 33:561-573 and Grimm et al (1998) Cardiovascular Research 37:91-100). After 2 weeks of treatment, M-mode ECHO analysis was used to assess myocardial structure/function (FIG. 3A). In this model, an increased right ventricle lateral wall (RVLW) thickness indicates the presence of myocardiocytes growth, and an increased ratio of the right to left ventricle internal diameters (RVID/LVID) is an indicator of pathologic hypertrophy. An increased RVLW thickness but constant or reduced RVID:LVID ratio is an indicator of adaptive compensatory RV remodeling. Both hCT1 and ISO induced a significant increase in RVLW thickness (12% and 32% fold increase, respectively) compared to control rats (n=3; * and **, P<0.05). […] An in vivo growth reversal analysis was also conducted. Following a 2 week delivery of CT-1 protein (6 μg/kg/hr) or PE (10 mg/kg/day) as the pathologic control in this case, animals were then assessed for cardiac structure/function at a 6 week follow-on period. […] Collectively, these studies support the contention that CT-1 elicits a reversible physiologic cardiac adaptive compensation.

[3] = test system: Mef2; assay: Mef2 luciferase reporter in primary neonatal cardiomyocytes; type: cell-based; details: hCT1 0.5 nM, PE 100 μM, PAC-1 25 μM
Experimental: (§1) FIGS. 6A, 6B, and 6C. Stimulation with hCT1 causes sustained activation of NF-κB and Stat3 with limited activation of Mef2, as well as limited Nfat activation; the latter two indices are distinct expression patterns from pathologic hypertrophic stimulation. FIG. 6A Primary neonatal cardiomyocytes were transfected with luciferase reporter plasmids (NF-κB or Mef2), as indicators of hypertrophic activity. Luciferase activity was measured after treatments for 24 hrs with: hCT1 (0.5 nM), PE (100 μM), or procaspase 3 activating compound 1, PAC-1 (25 μM) (left). Treatments at early timepoints (30 min, 1 hr, and 3 hr) were also conducted for hCT1 (right). FIG. 6B Primary neonatal cardiomyocytes were transfected with a luciferase reporter plasmid for Stat3. Luciferase activity was measured after treatments for 24 hrs with: hCT1 (0.5 nM), PE (100 μM), or procaspase 3 activating compound 1, PAC-1 (25 μM) (left) and at earlier time points (right). FIG. 6C Primary neonatal cardiomyocytes were infected with a luciferase-based Nfat reporter Adenovirus (Nfat-AdV). Luciferase activity was measured after treatments for 24 hrs with: hCT1 (0.5 nM), PE (100 μM), or procaspase 3 activating compound 1, PAC-1 (25 μM) (left) and at earlier time points (right)
The signaling pathways that CT-1 engages in mediating physiologic adaptive compensatory remodeling were examined. The applicants predicted that cardiomyocyte adaptive remodeling mediated by CT-1 results (in part) from the induction of a specific transcriptional program, which is distinct from that of pathologic hypertrophic response. To address this hypothesis, the applicants tested the activity of two well-known transcription factor families that have been linked to both physiologic and pathologic cardiomyocyte growth, the Mef2 (Kolodziejczyk et al. 1999 Curr Biol. 9, 1203-1206; Kim et al. 2008, J Clin Invest. 118, 124-132.) and the NF-κB family (Gordon et al. 2011, Circ Res. 108, 1122-1132). Primary neonatal cardiomyocytes were transfected with luciferase reporter plasmids (NF-κB and Mef2) to be used as a read out of transcriptional activity. Luciferase activity was determined after treatments for 24 hrs with: hCT1 (0.5 nM), PE (100 μM), or procaspase 3 activating compound 1, PAC-1 (25 μM). […] This pattern of transcription factor activation was distinct from that induced by PE and by the caspase 3 specific activating compound PAC-1.

[4] = test system: STAT3; assay: STAT3 luciferase reporter in cardiomyocytes; type: cell-based; details: 30 minutes up to 24 hours; hCT1 0.5 nM, PE 100 μM, PAC-1 25 μM
Experimental: as §1
Moreover, it is reasonable to assume that CT-1 may moderate the activity of additional transcription factors, which further contribute to the adaptive compensation phenotype. As such, Applicants decided to test the hypothesis that STAT3 (Signal transducer and activator of transcription 3) dependent transcriptional activity is a specific determinant for CT-1 induced physiologic adaptive compensation. STAT3 phosphorylation and transcriptional activation is a response that is common to the Interleukin-6 cytokine family (of which CT-1 is a member), which is mediated through binding and activation of a JAK/gp130 (Janus kinase/[…]) receptor complex.

[5] = test system: NFAT; assay: NFAT luciferase reporter adenovirus (Nfat-AdV) in cardiomyocytes; type: cell-based; details: as early as 3 hours, up to 24 hours; PE 100 μM, PAC-1 25 μM
Experimental: as §1
Applicants tested this supposition by infecting cardiomyocytes with an NFAT luciferase reporter linked to an Adenovirus (AdV) backbone (FIG. 6C). Cardiomyocytes were infected at a […] (MOI) of 20 with Nfat-AdV for 24 hours prior to stimulation with hCT1 (0.5 nM), PE (100 μM), or procaspase 3 activating compound 1, PAC-1 (25 μM). As an initial positive control, co-infection of NFAT-AdV with activated Calcineurin-AdV (a phosphatase and potent activator of NFAT signalling) caused a significant increase in NFAT activity (n=4; *, P<0.05). […] Although the exact mechanism of inhibition is unknown, Applicant has shown CT-1 engaging a PI3K signalling pathway and it would be reasonable to postulate that phosphorylation of NFAT by CT-1/PI3K signalling would limit NFAT activity.

[6] = test system: Vascular Endothelial Growth Factor—VEGF; assay: VEGF expression by immunofluorescence in primary cardiomyocytes; type: cell-based; details: 24 hours; hCT1 0.5 nM, PE 100 μM, PAC-1 25 μM
Experimental: FIGS. 8A and 8B. […] FIG. 8B Microarray analysis of primary cardiomyocytes stimulated with hCT1 (0.5 nM) for 24 hours.
Applicant explored the role of CT-1 as a pro-angiogenic factor in the adaptive hypertrophic response. Physiologic cardiac adaptive compensation is associated with an increase in capillary density, whereas pathologic response is characterized by a decline or no change at all. Importantly, the compensatory vascular growth/angiogenesis that occurs during physiologic adaptive compensation is permissive for the increased workload that accompanies physiologic adaptive compensation. Despite this adaptation, little information exists regarding the mechanisms that match the demand for angiogenesis to the beneficial form of myocardial growth. The rapid in vitro and in vivo adaptive compensation in response to CT-1 supports a hypothesis that the cardiomyocyte itself may act in a paracrine fashion, to signal and promote angiogenesis. To address this conjecture, Applicant examined whether CT-1 treated primary cardiomyocytes produced vascular endothelial growth factor (VEGF), an angiogenic factor known to be produced and secreted by cardiomyocytes. Primary cardiomyocytes were incubated with control serum-free media (Ctrl, SF media) or stimulated with hCT1 (0.5 nM), PE (100 μM), or PAC-1 (25 μM) for 24 hours. Immunofluorescence was used to detect α-actinin, Vascular Endothelial Growth Factor—VEGF, and nuclei. […] Based on these observations Applicant next conducted a comparative gene expression analysis of control (non-stimulated) versus CT-1 treated (0.5 nM, 24 hours) primary cardiomyocytes, using the Affymetrix Rat gene 2.0ST array.

## OO [H2O2, hydrogen peroxide]
[1]; 1 h, 300 μM
  cardiomyocyte viability decreased vs. control: 24%
[1]; 24 h
  decrease in viability vs. control: 70%

## CC(C)NCC(O)c1ccc(O)c(O)c1 (stereo not drawn) [ISO, Isoproterenol, reference compound]
[2]
  increase in the RVID/LVID ratio: 24%
[2]; hCT1 6 μg/kg/hr, subcutaneous minipump
  increase in RVLW thickness compared to control rats: 32 % fold increase

## O=c1cc(N2CCOCC2)oc2c(-c3ccccc3)cccc12 [LY294002]
[1]; pre-treatment with LY294002 50 μM before CT-1/H2O2 (FIG. 7C)
  decrease in viability compared to cells treated only with hCT1/H2O2: 46%

## C=CCc1cccc(/C=N/NC(=O)CN2CCN(Cc3ccccc3)CC2)c1O [PAC-1, procaspase 3 activating compound 1, reference compound]
[3]
  Mef2 activation after 24 hrs: significant activation of Mef2
[4]
  STAT3 activation: only minimal (if any) activation
[5]
  NFAT activity compared to baseline levels: significant increase of NFAT activity
[6]
  VEGF expression (immunofluorescence): less VEGF expression
